We go through 34 molecules from article PMC11995724, “Antibiotic target discovery by integrated phenotypic and activity-based profiling of electrophilic fragments” (Cell chemical biology, 2025).

The structures appear in SMILES notation.

A short description of this data set: in vitro. The note with it: human, hek293t cells.
One may read the viability as a read-out of living cells in per cent, often relative to untreated cells. In the case of `C=CC(=O)NCc1c(F)cccc1S(=O)(=O)N(C)C` [3-L15, N-{[2-(dimethylsulfamoyl)-6-fluorophenyl]methyl}prop-2-enamide], the viability at 48 h, 25 µM is 83.2%.
Regarding `C=CC(=O)N1CC(C)c2ccc(S(N)(=O)=O)cc21` (stereo not shown) [3-L16, 3-methyl-1-(prop-2-enoyl)-2,3-dihydro-1H-indole-6-sulfonamide], the viability at 48 h, 25 µM was found to be 1.43%.
In the case of `C=CC(=O)NC1CC(C)Cc2cc(OC)ccc21` (stereo not shown) [3-L17, N-(6-methoxy-3-methyl-1,2,3,4-tetrahydronaphthalen-1-yl)prop-2-enamide], the viability at 48 h, 25 µM was found to be 61.6%.
Regarding `C=CC(=O)Nc1ccc(C2=NNC(=O)CO2)cc1` [3-L18, N-[4-(5-oxo-5,6-dihydro-4H-1,3,4-oxadiazin-2-yl)phenyl]prop-2-enamide], the viability at 48 h, 25 µM was determined as 67.1%.
For `C=CC(=O)NCC(OC)C1CCOC1` (stereo not shown) [3-L19, N-[2-methoxy-2-(oxolan-3-yl)ethyl]prop-2-enamide] the value was 85.8%.
Turning to `C=CC(=O)NCc1cn2c(n1)CCCC2` [3-L20, N-({5H,6H,7H,8H-imidazo[1,2-a]pyridin-2-yl}methyl)prop-2-enamide], the viability at 48 h, 25 µM was 103%.
Next, `C=CC(=O)NCc1ccccc1N1CCCC(C(N)=O)C1` (stereo not shown) [3-L21, 1-{2-[(prop-2-enamido)methyl]phenyl}piperidine-3-carboxamide]: 68.9%; `C=CC(=O)NCc1ccc(C(=O)N2CCC[C@@H]2C(N)=O)cc1` [3-L22, (2R)-1-{4-[(prop-2-enamido)methyl]benzoyl}pyrrolidine-2-carboxamide]: 81.9%; `C=CC(=O)N1CCn2cccc2C1c1ccncc1` (stereo not shown) [3-M03, 1-[1-(pyridin-4-yl)-1H,2H,3H,4H-pyrrolo[1,2-a]pyrazin-2-yl]prop-2-en-1-one]: 45.2%.
For the molecule `C=CC(=O)N1CCC(C(=O)NC2(c3ccc(F)cc3F)CCC2)CC1` [3-M04, N-[1-(2,4-difluorophenyl)cyclobutyl]-1-(prop-2-enoyl)piperidine-4-carboxamide], the viability at 48 h, 25 µM stood at 97.5%.
For `C=CC(=O)N1CCC(C(=O)NC(C)CC2CC2)CC1` (stereo not shown) [3-M05, N-(1-cyclopropylpropan-2-yl)-1-(prop-2-enoyl)piperidine-4-carboxamide], the viability at 48 h, 25 µM is 53.3%.
As to `C=CC(=O)N1CCC(C(=O)NCC(O)c2cccc(Cl)c2)CC1` (stereo not shown) [3-M06, N-[2-(3-chlorophenyl)-2-hydroxyethyl]-1-(prop-2-enoyl)piperidine-4-carboxamide], the viability at 48 h, 25 µM came out at 98.1%.
Regarding `C=CC(=O)NCC1CCc2cccnc21` (stereo not shown) [3-M07, N-({5H,6H,7H-cyclopenta[b]pyridin-7-yl}methyl)prop-2-enamide], the viability at 48 h, 25 µM was 47.8%.
As for `C=CC(=O)Nc1cccc(S(=O)(=O)C2CCOCC2)c1` [3-M08, N-[3-(oxane-4-sulfonyl)phenyl]prop-2-enamide], the viability at 48 h, 25 µM came to 96.8%.
On to `C=CC(=O)N1CCCC1c1cn(C)nc1C` (stereo not shown) [3-M09, 1-[2-(1,3-dimethyl-1H-pyrazol-4-yl)pyrrolidin-1-yl]prop-2-en-1-one], for which the viability at 48 h, 25 µM is 50.9%.
On to `C=CC(=O)N1CCCn2nc(CO)cc2C1` [3-M10, 1-[2-(hydroxymethyl)-4H,5H,6H,7H,8H-pyrazolo[1,5-a][1,4]diazepin-5-yl]prop-2-en-1-one], for which the viability at 48 h, 25 µM was found to be 109%.
Next, `C=CC(=O)N1CCN(C(C)c2nc(C)no2)CC1` (stereo not shown) [3-M11, 1-{4-[1-(3-methyl-1,2,4-oxadiazol-5-yl)ethyl]piperazin-1-yl}prop-2-en-1-one]: 61%; `C=CC(=O)N1CCCC(n2cc(C)cn2)C1` (stereo not shown) [3-M12, 1-[3-(4-methyl-1H-pyrazol-1-yl)piperidin-1-yl]prop-2-en-1-one]: 94.4%; `C=CC(=O)NCCn1nc(C)cc1C` [3-M13, N-[2-(3,5-dimethyl-1H-pyrazol-1-yl)ethyl]prop-2-enamide]: 56.9%.
With `C=CC(=O)N1CCC(C(=O)NC(C)(C)CSC)CC1` [3-M14, N-[2-methyl-1-(methylsulfanyl)propan-2-yl]-1-(prop-2-enoyl)piperidine-4-carboxamide], the viability at 48 h, 25 µM turned out to be 153%.
On to `C=CC(=O)N1CCCn2ncc(C3CC3)c21` [3-M15, 1-{3-cyclopropyl-4H,5H,6H,7H-pyrazolo[1,5-a]pyrimidin-4-yl}prop-2-en-1-one], for which the viability at 48 h, 25 µM amounted to 1.25%.
For `C=CC(=O)N1CCC(C(=O)Oc2ccc(NC(C)=O)cc2)CC1` [3-M16, 4-acetamidophenyl 1-(prop-2-enoyl)piperidine-4-carboxylate], the viability at 48 h, 25 µM was 93.3%.
For `C=CC(=O)NCCC(=O)N1CCC(c2ncccn2)CC1` [3-M17, N-{3-oxo-3-[4-(pyrimidin-2-yl)piperidin-1-yl]propyl}prop-2-enamide] the value was 62.4%; for `C=CC(=O)Nc1cnn(CCN2CCCC2=O)c1` [3-M18, N-{1-[2-(2-oxopyrrolidin-1-yl)ethyl]-1H-pyrazol-4-yl}prop-2-enamide], 90%; for `C=CC(=O)N(CC)CC(=O)Nc1ccc2c(c1)nc1n2CCCCC1` [3-M19, N-[({1,8-diazatricyclo[7.5.0.0,2,7]tetradeca-2,4,6,8-tetraen-5-yl}carbamoyl)methyl]-N-ethylprop-2-enamide], 35.8%.
Turning to `C=CC(=O)NCCc1nccs1` [3-M20, N-[2-(1,3-thiazol-2-yl)ethyl]prop-2-enamide], the viability at 48 h, 25 µM is 89.6%.
Take `C=CC(=O)N1CCC(C(=O)NCc2ccc(-c3n[nH]c(C)n3)cc2)CC1` [3-M21, N-{[4-(5-methyl-1H-1,2,4-triazol-3-yl)phenyl]methyl}-1-(prop-2-enoyl)piperidine-4-carboxamide]: the viability at 48 h, 25 µM was 56.1%.
For the molecule `C=CC(=O)NC(C)Cc1cccn1C` (stereo not shown) [3-M22, N-[1-(1-methyl-1H-pyrrol-2-yl)propan-2-yl]prop-2-enamide], the viability at 48 h, 25 µM worked out at 70.2%.
In the case of `C=CC(=O)N1CCC(C(=O)NCc2ccccc2-n2cccn2)CC1` [3-N03, 1-(prop-2-enoyl)-N-{[2-(1H-pyrazol-1-yl)phenyl]methyl}piperidine-4-carboxamide], the viability at 48 h, 25 µM came out at 68%.
For `C=CC(=O)N1CCC(c2nnc(C)o2)CC1` [3-N04, 1-[4-(5-methyl-1,3,4-oxadiazol-2-yl)piperidin-1-yl]prop-2-en-1-one] the value was 87.3%.
`C=CC(=O)N1CCC(C(=O)NCc2ccc(C(N)=O)nc2)CC1` [3-N05, 5-({[1-(prop-2-enoyl)piperidin-4-yl]formamido}methyl)pyridine-2-carboxamide]: the viability at 48 h, 25 µM is 59.8%.
In the case of `C=CC(=O)NCc1ccc(C(=O)N2CCCOC(C)(C)C2)cc1` [3-N06, N-{[4-(2,2-dimethyl-1,4-oxazepane-4-carbonyl)phenyl]methyl}prop-2-enamide], the viability at 48 h, 25 µM turned out to be 70.7%.
As for `C=CC(=O)NCc1nnc2n1CCCCC2` [3-N07, N-({5H,6H,7H,8H,9H-[1,2,4]triazolo[4,3-a]azepin-3-yl}methyl)prop-2-enamide], the viability at 48 h, 25 µM came to 43.2%.
On to `C=CC(=O)NCc1n[nH]c(=O)n1C1CC1` [3-N08, N-[(4-cyclopropyl-5-oxo-4,5-dihydro-1H-1,2,4-triazol-3-yl)methyl]prop-2-enamide], for which the viability at 48 h, 25 µM is 80%.
